Source: PubChem BioAssay (NCI)
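Growth conditions: 96-well plates. Treatment: test compound, 48 hours, 5 concentrations. Analysis: linear interpolation between bracketing concentrations; unreached endpoints set to highest concentration. Abbreviation: GI50, concentration required for 50% inhibition of growth. The concentration for full growth arrest is given as TGI.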

Experiments:
Test in all cases: NCI tumour cell line growth inhibition, 48 h
SK-MEL-5 melanoma = system: SK-MEL-5 melanoma
MCF7 breast = system: MCF7 breast
SNB-75 CNS = system: SNB-75 CNS
UO-31 renal = system: UO-31 renal
A549 NSCLC = system: A549 NSCLC
KM12 colon = system: KM12 colon
NCI/ADR-RES ovarian = system: NCI/ADR-RES ovarian
MDA-MB-435 = system: MDA-MB-435
HOP-92 NSCLC = system: HOP-92 NSCLC
SF-268 CNS = system: SF-268 CNS
BT-549 breast = system: BT-549 breast
HCT-15 colon = system: HCT-15 colon
UACC-257 melanoma = system: UACC-257 melanoma
NCI-H460 lung = system: NCI-H460 lung
HT29 colon = system: HT29 colon
CAKI-1 renal = system: CAKI-1 renal
HCC-2998 colon = system: HCC-2998 colon
K-562 leukemia = system: K-562 leukemia
A498 renal = system: A498 renal
COLO 205 colon = system: COLO 205 colon
SK-OV-3 ovarian = system: SK-OV-3 ovarian
HOP-62 NSCLC = system: HOP-62 NSCLC
SF-295 CNS = system: SF-295 CNS
OVCAR-8 ovarian = system: OVCAR-8 ovarian
PC-3 prostate = system: PC-3 prostate
786-0 renal = system: 786-0 renal
DU-145 prostate = system: DU-145 prostate
OVCAR-5 ovarian = system: OVCAR-5 ovarian
MDA-MB-231 breast = system: MDA-MB-231 breast
U251 CNS = system: U251 CNS
SN12C renal = system: SN12C renal
SNB-19 CNS = system: SNB-19 CNS
MOLT-4 leukemia = system: MOLT-4 leukemia
NCI-H23 lung = system: NCI-H23 lung
LOX IMVI melanoma = system: LOX IMVI melanoma
ACHN renal = system: ACHN renal
HS 578T breast = system: HS 578T breast
M14 melanoma = system: M14 melanoma
NCI-H522 lung = system: NCI-H522 lung
MALME-3M melanoma = system: MALME-3M melanoma
SK-MEL-2 melanoma = system: SK-MEL-2 melanoma
OVCAR-4 ovarian = system: OVCAR-4 ovarian
HCT-116 colon = system: HCT-116 colon
UACC-62 melanoma = system: UACC-62 melanoma
RXF 393 renal = system: RXF 393 renal
IGROV1 ovarian = system: IGROV1 ovarian
NCI-H226 lung = system: NCI-H226 lung
OVCAR-3 ovarian = system: OVCAR-3 ovarian
T-47D breast = system: T-47D breast
RPMI-8226 leukemia = system: RPMI-8226 leukemia
EKVX NSCLC = system: EKVX NSCLC
TK-10 renal = system: TK-10 renal
SW-620 colon = system: SW-620 colon
SK-MEL-28 melanoma = system: SK-MEL-28 melanoma
SF-539 CNS = system: SF-539 CNS

## O=C(NCCCCOCC#Cc1ccccc1C#CCS(=O)(=O)c1ccccc1)c1cc2ccccc2[nH]1
SK-MEL-5 melanoma
  GI50: 7.86 µM
  TGI: 16.3 µM
MCF7 breast
  GI50: 8.91 µM
  TGI: > 26.1 µM
SNB-75 CNS
  GI50: 12.5 µM
  TGI: 27.3 µM
UO-31 renal
  GI50: 4.05 µM
  TGI: 11.8 µM
A549 NSCLC
  GI50: 16.8 µM
  TGI: > 50 µM
KM12 colon
  GI50: 17.5 µM
  TGI: > 50 µM
NCI/ADR-RES ovarian
  GI50: 7.99 µM
  TGI: 25 µM
MDA-MB-435
  GI50: 10.6 µM
  TGI: 30.3 µM
HOP-92 NSCLC
  GI50: 1.39 µM
  TGI: 15.7 µM
SF-268 CNS
  GI50: 12.4 µM
  TGI: > 43.1 µM
BT-549 breast
  GI50: 8.38 µM
  TGI: > 27.1 µM
HCT-15 colon
  GI50: 7.21 µM
  TGI: 15.7 µM
UACC-257 melanoma
  GI50: 22.4 µM
  TGI: > 50 µM
NCI-H460 lung
  GI50: 14.4 µM
  TGI: > 50 µM
HT29 colon
  GI50: 13.7 µM
  TGI: > 50 µM
CAKI-1 renal
  GI50: 14.9 µM
  TGI: > 38.2 µM
HCC-2998 colon
  GI50: 12 µM
  TGI: 32.4 µM
K-562 leukemia
  GI50: 6.83 µM
  TGI: > 50 µM
A498 renal
  GI50: 25.8 µM
  TGI: > 50 µM
COLO 205 colon
  GI50: 10.9 µM
  TGI: 28.1 µM
SK-OV-3 ovarian
  GI50: 19.5 µM
  TGI: > 50 µM
HOP-62 NSCLC
  GI50: 21.5 µM
  TGI: > 50 µM
SF-295 CNS
  GI50: 15.9 µM
  TGI: > 44.7 µM
OVCAR-8 ovarian
  GI50: 11.4 µM
  TGI: 48.9 µM
PC-3 prostate
  GI50: 7.1 µM
  TGI: 36.5 µM
786-0 renal
  GI50: 12.8 µM
  TGI: 34.8 µM
DU-145 prostate
  GI50: 18.1 µM
  TGI: > 50 µM
OVCAR-5 ovarian
  GI50: 26.8 µM
  TGI: > 50 µM
MDA-MB-231 breast
  GI50: 9.59 µM
  TGI: 27.4 µM
U251 CNS
  GI50: 9.64 µM
  TGI: 22 µM
SN12C renal
  GI50: 10 µM
  TGI: 24.9 µM
SNB-19 CNS
  GI50: 15.1 µM
  TGI: > 50 µM
MOLT-4 leukemia
  TGI: > 10.1 µM
NCI-H23 lung
  GI50: 7.25 µM
  TGI: 16 µM
LOX IMVI melanoma
  GI50: 1.58 µM
  TGI: 4.8 µM
ACHN renal
  GI50: 9.64 µM
  TGI: 22.9 µM
HS 578T breast
  GI50: 21.9 µM
  TGI: > 50 µM
M14 melanoma
  GI50: 12.1 µM
  TGI: 36.3 µM
NCI-H522 lung
  GI50: 7.79 µM
  TGI: 16.4 µM
MALME-3M melanoma
  GI50: 7.85 µM
  TGI: 24.1 µM
SK-MEL-2 melanoma
  GI50: 20.9 µM
  TGI: > 50 µM
OVCAR-4 ovarian
  GI50: 5.56 µM
  TGI: 22.7 µM
HCT-116 colon
  GI50: 9.63 µM
  TGI: 26.6 µM
UACC-62 melanoma
  GI50: 8.29 µM
  TGI: 16.6 µM
RXF 393 renal
  GI50: 12.2 µM
  TGI: 38.5 µM
IGROV1 ovarian
  GI50: 2.68 µM
  TGI: 7.03 µM
NCI-H226 lung
  GI50: 9.85 µM
  TGI: 25 µM
OVCAR-3 ovarian
  GI50: 14 µM
  TGI: > 35 µM
T-47D breast
  GI50: 12.3 µM
  TGI: > 37.5 µM
RPMI-8226 leukemia
  GI50: 2.78 µM
  TGI: 13.2 µM
EKVX NSCLC
  GI50: 22.5 µM
  TGI: > 50 µM
TK-10 renal
  GI50: 23.5 µM
  TGI: > 50 µM
SW-620 colon
  GI50: 11.5 µM
  TGI: > 45.5 µM
SK-MEL-28 melanoma
  GI50: 9.82 µM
  TGI: 26.7 µM
SF-539 CNS
  GI50: 12.1 µM
  TGI: 26.8 µM
